Values quoted from earlier work in US8269040B2, “Derivatives of venlafaxine and methods of preparing and using the same” (Wyeth LLC, priority 1999, dated 2012).

Columns and labels:
[1] = tested on: norepinephrine uptake; conditions: in vitro; versus parent compound venlafaxine
[2] = biological target: dopamine uptake (Rattus norvegicus, UniProt P23977); conditions: in vitro; versus parent compound venlafaxine
[3] = tested on: serotonin uptake; conditions: versus the other enantiomer
[4] = tested on: norepinephrine synaptosomal uptake; conditions: versus the other enantiomer

Sequence of dopamine uptake (P23977 whole entry): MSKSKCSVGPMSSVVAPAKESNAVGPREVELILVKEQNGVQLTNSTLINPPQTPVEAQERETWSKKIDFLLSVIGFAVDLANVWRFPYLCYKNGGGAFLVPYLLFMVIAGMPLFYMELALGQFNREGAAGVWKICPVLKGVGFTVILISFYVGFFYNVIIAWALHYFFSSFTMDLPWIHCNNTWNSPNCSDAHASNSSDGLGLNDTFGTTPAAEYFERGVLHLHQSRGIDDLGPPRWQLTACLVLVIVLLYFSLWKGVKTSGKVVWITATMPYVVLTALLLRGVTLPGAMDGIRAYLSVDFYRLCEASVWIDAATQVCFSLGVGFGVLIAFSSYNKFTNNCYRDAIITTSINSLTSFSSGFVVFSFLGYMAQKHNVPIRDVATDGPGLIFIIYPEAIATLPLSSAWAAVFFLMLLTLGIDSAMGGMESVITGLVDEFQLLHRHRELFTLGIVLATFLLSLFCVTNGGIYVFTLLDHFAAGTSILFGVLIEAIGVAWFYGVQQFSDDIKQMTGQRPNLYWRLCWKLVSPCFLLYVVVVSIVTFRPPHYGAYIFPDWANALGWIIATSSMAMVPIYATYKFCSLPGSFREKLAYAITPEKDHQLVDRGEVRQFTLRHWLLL

CN(C)CC(c1ccc(O)cc1)C1(O)CCCCC1 (racemic) [O-desmethylvenlafaxine, (±)-1-[2-(dimethylamino)-1-(4-phenol)ethyl]cyclohexanol]
potency as inhibitor of norepinephrine uptake compared with venlafaxine [1]: more potent inhibitor | potency as inhibitor of dopamine uptake compared with venlafaxine [2]: more potent inhibitor | half-life relative to that of venlafaxine (compared with venlafaxine): approximately 2.5 times | half-life (t1/2) (in vivo): about 10 hours

COc1ccc(C(CN(C)C)C2(O)CCCCC2)cc1 (single isomer, unassigned; (+)) [(+) enantiomer]
selectivity in inhibiting serotonin uptake, comparison of enantiomers [3]: more selective

COc1ccc(C(CN(C)C)C2(O)CCCCC2)cc1 (single isomer, unassigned; (-)) [(−) enantiomer]
potency as inhibitor of norepinephrine synaptosomal uptake, comparison of enantiomers [4]: more potent inhibitor
